Assay results from patent publication US20090156582A1, “Pyrazole Compound” (priority 2005, published 2009).

Target: T1, recombinant GSK3β enzyme (human GSK3β) (Homo sapiens, UniProt P49841)
T1 construct: FLAG (N); made in house; host or cells: Sf-21 insect cells, recombinant baculovirus (pFASTBAC1 / BAC-TO-BAC)
Assay: Measurement of GSK3β inhibitory activity
Assay type: biochemical
Settings: glycogen synthase peptide substrate, Kinase Glo luminescence, read-out: IC50 (concentration of test compound needed for 50% inhibition of luminescent intensity), GSK3β inhibitory activity
Text: Human GSK3β gene was cloned by a PCR method using a primer set:
prepared using human brain cDNA (Clontech; trade name: QUICK-Clone cDNA) as a template and in reference to the base sequence of GSK3β gene registered in GenBank under Accession Number NM_002093.
PCR was done according to the protocol attached to KOD plus DNA polymerase (Toyo Boseki Kabushiki Kaisha). The obtained PCR product was electrophoresed on agarose gel (1%), and 1.2 kb of DNA fragment including GSK3β gene was collected from the gel and then digested with restriction enzymes EcoR I and Sal I. The restriction enzyme-treated DNA was electrophoresed on agarose gel (1%). The obtained DNA fragment was collected, and ligated to the plasmid pFASTBAC1 (Invitrogen), which had been digested with restriction enzyme EcoR I and Sal I, to produce expression plasmid pFB-GSK3B. The base sequence of insertion fragment was confirmed to find that it corresponded to the objective sequence. In addition, virus stock BAC-GSK3B of recombinant Baculovirus was prepared using BAC-TO-BAC Baculovirus Expression System (Invitrogen).
Sf-21 cells (Invitrogen) were seeded on Sf-900 II SFM medium (Invitrogen)(150 ml) containing 10% fetal calf serum at 1×10^6 cells/ml, and cultured at 27° C. for 24 hr. The virus stock […] obtained above of recombinant Baculovirus was added by 150 μl to the obtained culture medium, and the cells were cultured for another 60 hr. The culture medium was centrifuged (3000 rpm, 10 min) to separate the cells, and the cells were washed once with PBS. The cells were suspended in 10 ml of cell lysis buffer (25 mM HEPES (pH 7.5), 1% Triton X, 130 mM sodium chloride, 1 mM EDTA, 1 mM Dithiothreitol, 25 mM β-glycerophosphate, Protease inhibitor Complete (Boehringer), 1 mM Sodium orthovanadate), treated 4 times using a homogenizer (POLYTRON) at 20000 rpm for 30 sec to disrupt the cells. The disrupted solution of cells was centrifuged (40000 rpm, 45 min.), and GSK3β was purified from the obtained supernatant using Anti-FLAG M2 Affinity Gel (Sigma Ltd.).
10 μl of ATP solution (2.5 μM ATP) was added to the obtained mixture, and the mixture was reacted at room temperature for 30 min. Kinase Glo Reagent (Promega) (50 μl) was added to the reaction solution to stop the reaction. After reaction at room temperature for 10 min, the luminescent intensity was measured using ARVO multilabel counter (PerkinElmer Life Sciences). The concentrations of the test compounds needed for 50% inhibition of luminescent intensity (IC50 value) were calculated by PRISM 3.0 (GraphPad Software).

T1 sequence (P49841 whole entry): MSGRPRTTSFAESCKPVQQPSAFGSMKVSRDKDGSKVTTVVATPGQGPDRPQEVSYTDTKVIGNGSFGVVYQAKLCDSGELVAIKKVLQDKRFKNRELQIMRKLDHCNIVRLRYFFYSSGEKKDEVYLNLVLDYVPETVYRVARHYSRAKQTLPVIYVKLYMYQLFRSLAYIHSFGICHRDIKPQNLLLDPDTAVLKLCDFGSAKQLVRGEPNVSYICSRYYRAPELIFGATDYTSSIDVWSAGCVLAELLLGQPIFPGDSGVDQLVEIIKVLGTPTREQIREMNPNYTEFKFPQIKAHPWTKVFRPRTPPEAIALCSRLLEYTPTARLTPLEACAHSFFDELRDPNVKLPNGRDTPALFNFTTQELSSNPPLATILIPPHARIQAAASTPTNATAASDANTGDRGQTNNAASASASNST

Structure (SMILES) | IC50
O=C(CCc1ccccc1)Nc1c[nH]nc1C(=O)NCc1ccco1 [Example 149, N-(2-furylmethyl)-4-[(3-phenylpropanoyl)amino]-1H-pyrazole-3-carboxamide] | 334 nM
O=C(Nc1c[nH]nc1C(=O)NCc1ccccc1)c1ccccn1 [Example 337, N-(3-((benzylamino)carbonyl)-1H-pyrazol-4-yl)pyridine-2-carboxamide] | < 100 nM
O=C(Nc1c[nH]nc1C(=O)NCCc1ccccc1)c1ccccn1 [Example 338, N-(3-(((2-phenylethyl)amino)carbonyl)-1H-pyrazol-4-yl)pyridine-2-carboxamide] | < 100 nM
O=C(Nc1c[nH]nc1C(=O)NC1Cc2ccccc2C1)c1ccccn1 [Example 339] | < 100 nM
O=C(Nc1c[nH]nc1C(=O)NC1CCc2ccccc21)c1ccccn1 (centres unmarked) [Example 340] | 300 nM
O=C(Nc1c[nH]nc1C(=O)Nc1ccccc1)c1ccccn1 [Example 341, N-(3-(anilinocarbonyl)-1H-pyrazol-4-yl)pyridine-2-carboxamide] | < 100 nM
O=C(Nc1c[nH]nc1C(=O)NCCCc1ccccc1)c1ccccn1 [Example 342, N-(3-(((3-phenylpropyl)amino)carbonyl)-1H-pyrazol-4-yl)pyridine-2-carboxamide] | < 100 nM
O=C(Nc1c[nH]nc1C(=O)Nc1cccc(C(F)(F)F)c1)c1ccccn1 [Example 343, N-(3-(((3-(trifluoromethyl)phenyl)amino)carbonyl)-1H-pyrazol-4-yl)pyridine-2-carboxamide] | < 100 nM
O=C(Nc1c[nH]nc1C(=O)NC1CCCC1)c1ccccn1 [Example 344, N-(3-((cyclopentylamino)carbonyl)-1H-pyrazol-4-yl)pyridine-2-carboxamide] | < 100 nM
CC(C)NC(=O)c1n[nH]cc1NC(=O)c1ccccn1 [Example 345, N-(3-((isopropylamino)carbonyl)-1H-pyrazol-4-yl)pyridine-2-carboxamide] | < 100 nM
CNC(=O)c1n[nH]cc1NC(=O)c1ccccn1 [Example 346, N-(3-((methylamino)carbonyl)-1H-pyrazol-4-yl)pyridine-2-carboxamide] | < 100 nM
O=C(Nc1c[nH]nc1C(=O)NCc1ccco1)c1ccccn1 [Example 347, N-(3-(((2-furylmethyl)amino)carbonyl)-1H-pyrazol-4-yl)pyridine-2-carboxamide] | < 100 nM
O=C(Nc1c[nH]nc1C(=O)NCCc1c[nH]c2ccccc12)c1ccccn1 [Example 348, N-(3-(((2-(1H-indol-3-yl)ethyl)amino)carbonyl)-1H-pyrazol-4-yl)pyridine-2-carboxamide] | < 100 nM
O=C(Nc1c[nH]nc1C(=O)NC1CCCCC1)c1ccccn1 [Example 349, N-(3-((cyclohexylamino)carbonyl)-1H-pyrazol-4-yl)pyridine-2-carboxamide] | < 100 nM
N#Cc1ccc(NCCNC(=O)c2n[nH]cc2NC(=O)c2ccccn2)nc1 [Example 350] | < 100 nM
O=C(Nc1c[nH]nc1C(=O)NCCc1ccc(Br)cc1)c1ccccn1 [Example 351, N-(3-(((2-(4-bromophenyl)ethyl)amino)carbonyl)-1H-pyrazol-4-yl)pyridine-2-carboxamide] | < 100 nM
O=C(Nc1c[nH]nc1C(=O)NCCc1cccnc1)c1ccccn1 [Example 352, N-(3-(((2-pyridin-3-ylethyl)amino)carbonyl)-1H-pyrazol-4-yl)pyridine-2-carboxamide] | < 100 nM
CC(C)OCCCNC(=O)c1n[nH]cc1NC(=O)c1ccccn1 [Example 353, N-(3-(((3-isopropoxypropyl)amino)carbonyl)-1H-pyrazol-4-yl)pyridine-2-carboxamide] | < 100 nM
O=C(Nc1c[nH]nc1C(=O)NCc1ccc(-c2ccccc2)cc1)c1ccccn1 [Example 354, N-(3-(((biphenyl-4-ylmethyl)amino)carbonyl)-1H-pyrazol-4-yl)pyridine-2-carboxamide] | < 100 nM

Structure (SMILES) | IC50
O=C(Nc1c[nH]nc1C(=O)NCCOc1ccccc1)c1ccccn1 [Example 355, N-(3-(((2-phenoxyethyl)amino)carbonyl)-1H-pyrazol-4-yl)pyridine-2-carboxamide] | < 100 nM
COCCNC(=O)c1n[nH]cc1NC(=O)c1ccccn1 [Example 356, N-(3-(((2-methoxyethyl)amino)carbonyl)-1H-pyrazol-4-yl)pyridine-2-carboxamide] | < 100 nM
CC(C)OCCNC(=O)c1n[nH]cc1NC(=O)c1ccccn1 [Example 357, N-(3-(((2-isopropoxyethyl)amino)carbonyl)-1H-pyrazol-4-yl)pyridine-2-carboxamide] | < 100 nM
N#CCCNC(=O)c1n[nH]cc1NC(=O)c1ccccn1 [Example 358, N-(3-(((2-cyanoethyl)amino)carbonyl)-1H-pyrazol-4-yl)pyridine-2-carboxamide] | < 100 nM
O=C(CNC(=O)c1n[nH]cc1NC(=O)c1ccccn1)c1ccccc1 [Example 359, N-(3-(((2-oxo-2-phenylethyl)amino)carbonyl)-1H-pyrazol-4-yl)pyridine-2-carboxamide] | < 100 nM
O=C(Nc1c[nH]nc1C(=O)NCC(F)(F)F)c1ccccn1 [Example 360, N-(3-(((2,2,2-trifluoroethyl)amino)carbonyl)-1H-pyrazol-4-yl)pyridine-2-carboxamide] | < 100 nM
O=C(Nc1c[nH]nc1C(=O)NCCSc1ccccc1)c1ccccn1 [Example 361, N-(3-(((2-(phenylthio)ethyl)amino)carbonyl)-1H-pyrazol-4-yl)pyridine-2-carboxamide] | < 100 nM
O=C(Nc1c[nH]nc1C(=O)NC1CCCC1)c1cccc2c1OCC2 [Example 362, N-cyclopentyl-4-((2,3-dihydro-1-benzofuran-7-ylcarbonyl)amino)-1H-pyrazole-3-carboxamide] | < 100 nM
Cc1ncccc1C(=O)Nc1c[nH]nc1C(=O)NC1CCCC1 [Example 363, N-(3-((cyclopentylamino)carbonyl)-1H-pyrazol-4-yl)-2-methylnicotinamide] | < 100 nM
Cc1ccc(C(=O)Nc2c[nH]nc2C(=O)NC2CCCC2)cn1 [Example 364, N-(3-((cyclopentylamino)carbonyl)-1H-pyrazol-4-yl)-6-methylnicotinamide] | < 100 nM
COc1ncccc1C(=O)Nc1c[nH]nc1C(=O)NC1CCCC1 [Example 365, N-(3-((cyclopentylamino)carbonyl)-1H-pyrazol-4-yl)-2-methoxynicotinamide] | < 100 nM
O=C(NC1CCCC1)c1n[nH]cc1NC(=O)c1c(F)cccc1F [Example 366, N-cyclopentyl-4-((2,6-difluorobenzoyl)amino)-1H-pyrazole-3-carboxamide] | < 100 nM
O=C(NC1CCCC1)c1n[nH]cc1NC(=O)C1CCCC1 [Example 367, N-cyclopentyl-4-(cyclopentanecarbonylamino)-1H-pyrazole-3-carboxamide] | < 100 nM
CCC(CC)C(=O)Nc1c[nH]nc1C(=O)NC1CCCC1 [Example 368, N-cyclopentyl-4-((2-ethylbutanoyl)amino)-1H-pyrazole-3-carboxamide] | < 100 nM
CC(=O)Nc1cccc(C(=O)Nc2c[nH]nc2C(=O)NCCOc2ccccc2)c1 [Example 369, 4-((3-(acetylamino)benzoyl)amino)-N-(2-phenoxyethyl)-1H-pyrazole-3-carboxamide] | < 100 nM
COCCNC(=O)c1n[nH]cc1NC(=O)c1cccc(NC(C)=O)c1 [Example 370, 4-((3-(acetylamino)benzoyl)amino)-N-(2-methoxyethyl)-1H-pyrazole-3-carboxamide] | < 100 nM
CC(=O)Nc1cccc(C(=O)Nc2c[nH]nc2C(=O)NCCOC(C)C)c1 [Example 371, 4-((3-(acetylamino)benzoyl)amino)-N-(2-isopropoxyethyl)-1H-pyrazole-3-carboxamide] | < 100 nM
CC(=O)Nc1cccc(C(=O)Nc2c[nH]nc2C(=O)NCCC#N)c1 [Example 372, 4-((3-(acetylamino)benzoyl)amino)-N-(2-cyanoethyl)-1H-pyrazole-3-carboxamide] | < 100 nM
CC(=O)Nc1cccc(C(=O)Nc2c[nH]nc2C(=O)NCCN(C)C)c1 [Example 373, 4-((3-(acetylamino)benzoyl)amino)-N-(2-(dimethylamino)ethyl)-1H-pyrazole-3-carboxamide] | < 100 nM
